# From ChEMBL document CHEMBL1132573, “Novel antitumor 2-cyanoaziridine-1-carboxamides” (J Med Chem, 1999)
# Key:
# Type in all cases: functional, cell-based
# WiDr [1] = assay: Inhibition of cell growth in drug resistant WiDr colon cell line; conditions: Homo sapiens
# WiDr [2] = assay: Inhibition of cell growth in drug sensitive WiDr colon cell line; conditions: Homo sapiens
# MCF7 [3] = assay: Inhibition of cell growth in (MCF7 breast) mitox cell line; conditions: Homo sapiens
# RPMI-8226 [4] = assay: Inhibition of cell growth in drug sensitive 8226 myeloma cell line; conditions: Homo sapiens
# MCF7 [5] = assay: Inhibition of cell growth in drug sensitive MCF-7 breast cell line; conditions: Homo sapiens
# OVCAR-3 = assay: Inhibition of cell growth in (OVCAR-3) ovarian cell line; conditions: Homo sapiens
# RPMI-8226 [6] = assay: Inhibition of cell growth in drug resistant 8226 myeloma cell line; conditions: Homo sapiens
# L1210 [7] = assay: Inhibition of cell growth in (L1210 leukemia) MDR cells determined by MTT assay; conditions: Mus musculus
# A-375 = assay: Inhibition of cell growth in (A375) melan cell line; conditions: Homo sapiens
# MCF7 [8] = assay: Inhibition of cell growth in (MCF7 breast) dox cell line; conditions: Homo sapiens
# A549 = assay: Inhibition of cell growth in (A-549) lung cell line; conditions: Homo sapiens
# L1210 [9] = assay: Inhibition of cell growth in drug sensitive L1210 leukemia cell line determined by MTT assay; conditions: Mus musculus
SMILES,IC50 (WiDr [1]) [µM],IC50 (WiDr [2]) [µM],IC50 (MCF7 [3]) [µM],IC50 (RPMI-8226 [4]) [µM],IC50 (MCF7 [5]) [µM],IC50 (OVCAR-3) [µM],IC50 (RPMI-8226 [6]) [µM],IC50 (L1210 [7]) [µM],IC50 (A-375) [µM],IC50 (MCF7 [8]) [µM],IC50 (A549) [µM],IC50 (L1210 [9]) [µM]
N#CC1CN1C(=O)NCc1ccccc1 (centres undefined),10,5.3,3.4,9,7.4,5,11,10,11,6,7.4,3.8
N#CC1CN1C(=O)Nc1ccc(F)cc1 (centres undefined),9,2.1,2.7,5,1.9,5.9,5.9,5.9,3.4,2.4,6.2,7.3
N#CC1CN1C(=O)NC1CCCCC1 (centres undefined),12,2.4,9.8,36,13,31,98,16,35,8.9,10,7.4
CC(=O)c1cccc(NC(=O)N2CC2C#N)c1 (centres undefined),9,3.3,3.5,8.7,3.6,10,9.6,7.9,7.9,3.2,5.6,9.6
CC(C)(C)NC(=O)N1CC1C#N (centres undefined),> 300,180,120,120,> 300,186,216,457,418,190,180,132
N#CC1CN1C(=O)Nc1ccc(C(F)(F)F)cc1 (centres undefined),5.8,1.3,1.3,8.2,1.5,5.9,7.8,7.1,11.8,1.4,4.3,7.8
N#CC1CN1C(=O)Nc1ccc(S(N)(=O)=O)cc1 (centres undefined),> 38,> 38,> 15,> 38,> 15,188,> 38,> 38,188,> 15,> 38,> 38
CCNC(=O)N1CC1C#N (centres undefined),7,4,10,22,29,14,26,14,36,20,18,14
N#CC1CN1C(=O)Nc1ccc(Cl)c(Cl)c1 (centres undefined),14,7,4.4,1.1,4.6,5.6,2.7,7.2,5.9,7.2,7.5,2.6
N#CC1CN1C(=O)Nc1ccc(Cl)cc1Cl (centres undefined),1.9,2.2,0.35,4.7,0.9,35,9.4,33,> 39,1.1,2.5,207
COC(=O)c1ccccc1NC(=O)N1CC1C#N (centres undefined),> 41,40,> 16,> 39,> 16,> 39,> 39,> 39,> 39,> 16,> 41,> 39
N#CC1CN1C(N)=O (centres undefined),,,> 54,,> 54,> 90,,> 90,> 90,> 54,,> 90
